Assay results taken from PubChem BioAssay (NCI).
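Values below derive from 48-hour exposures of cells grown in 96-well plates, with endpoints linearly interpolated between the two concentrations bracketing the appropriate inhibition level. GI50 = concentration required for 50% inhibition of growth. The concentration for full growth arrest is given as TGI.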

Legend:
Experiment in all cases: NCI tumour cell line growth inhibition, 48 h
OVCAR-8 ovarian = test system: OVCAR-8 ovarian
SK-MEL-2 melanoma = test system: SK-MEL-2 melanoma
BT-549 breast = test system: BT-549 breast
NCI-H23 lung = test system: NCI-H23 lung
SW-620 colon = test system: SW-620 colon
NCI-H460 lung = test system: NCI-H460 lung
DU-145 prostate = test system: DU-145 prostate
SF-539 CNS = test system: SF-539 CNS
786-0 renal = test system: 786-0 renal
SK-MEL-28 melanoma = test system: SK-MEL-28 melanoma
HOP-92 NSCLC = test system: HOP-92 NSCLC
EKVX NSCLC = test system: EKVX NSCLC
HCT-116 colon = test system: HCT-116 colon
HS 578T breast = test system: HS 578T breast
MCF7 breast = test system: MCF7 breast
MDA-MB-231 breast = test system: MDA-MB-231 breast
U251 CNS = test system: U251 CNS
NCI-H226 lung = test system: NCI-H226 lung
TK-10 renal = test system: TK-10 renal
RXF 393 renal = test system: RXF 393 renal
CAKI-1 renal = test system: CAKI-1 renal
A549 NSCLC = test system: A549 NSCLC
UACC-257 melanoma = test system: UACC-257 melanoma
OVCAR-4 ovarian = test system: OVCAR-4 ovarian
SN12C renal = test system: SN12C renal
HOP-62 NSCLC = test system: HOP-62 NSCLC
SK-OV-3 ovarian = test system: SK-OV-3 ovarian
NCI-H522 lung = test system: NCI-H522 lung
MDA-MB-435 = test system: MDA-MB-435
UACC-62 melanoma = test system: UACC-62 melanoma
OVCAR-3 ovarian = test system: OVCAR-3 ovarian
CCRF-CEM leukemia = test system: CCRF-CEM leukemia
COLO 205 colon = test system: COLO 205 colon
SR leukemia = test system: SR leukemia
HCT-15 colon = test system: HCT-15 colon
KM12 colon = test system: KM12 colon
OVCAR-5 ovarian = test system: OVCAR-5 ovarian
UO-31 renal = test system: UO-31 renal
SF-268 CNS = test system: SF-268 CNS
SF-295 CNS = test system: SF-295 CNS
RPMI-8226 leukemia = test system: RPMI-8226 leukemia
PC-3 prostate = test system: PC-3 prostate
IGROV1 ovarian = test system: IGROV1 ovarian
NCI/ADR-RES ovarian = test system: NCI/ADR-RES ovarian
K-562 leukemia = test system: K-562 leukemia
SNB-19 CNS = test system: SNB-19 CNS
ACHN renal = test system: ACHN renal
SK-MEL-5 melanoma = test system: SK-MEL-5 melanoma
LOX IMVI melanoma = test system: LOX IMVI melanoma
M14 melanoma = test system: M14 melanoma
A498 renal = test system: A498 renal
MOLT-4 leukemia = test system: MOLT-4 leukemia
HL-60(TB) leukemia = test system: HL-60(TB) leukemia

Cc1cc(S(N)(=O)=O)c(S/C(=N\NS(=O)(=O)c2ccccc2)c2ccc(Cl)c(Cl)c2)cc1Cl
GI50 (OVCAR-8 ovarian): 32.3 µM
TGI (OVCAR-8 ovarian): > 100 µM
GI50 (SK-MEL-2 melanoma): > 100 µM
TGI (SK-MEL-2 melanoma): > 100 µM
GI50 (BT-549 breast): 38.8 µM
TGI (BT-549 breast): > 100 µM
GI50 (NCI-H23 lung): 20.3 µM
TGI (NCI-H23 lung): 49.9 µM
GI50 (SW-620 colon): 37.3 µM
TGI (SW-620 colon): > 100 µM
GI50 (NCI-H460 lung): 29.5 µM
TGI (NCI-H460 lung): > 100 µM
GI50 (DU-145 prostate): 54.2 µM
TGI (DU-145 prostate): > 100 µM
GI50 (SF-539 CNS): 19.3 µM
TGI (SF-539 CNS): 64.3 µM
GI50 (786-0 renal): 54.9 µM
TGI (786-0 renal): > 100 µM
GI50 (SK-MEL-28 melanoma): 84.1 µM
TGI (SK-MEL-28 melanoma): > 100 µM
GI50 (HOP-92 NSCLC): 93.4 µM
TGI (HOP-92 NSCLC): > 100 µM
GI50 (EKVX NSCLC): 48.1 µM
TGI (EKVX NSCLC): > 100 µM
GI50 (HCT-116 colon): 38 µM
TGI (HCT-116 colon): > 100 µM
GI50 (HS 578T breast): 29.9 µM
TGI (HS 578T breast): 99.3 µM
GI50 (MCF7 breast): 30.5 µM
TGI (MCF7 breast): > 100 µM
GI50 (MDA-MB-231 breast): 28.7 µM
TGI (MDA-MB-231 breast): > 100 µM
GI50 (U251 CNS): 28.8 µM
TGI (U251 CNS): > 100 µM
GI50 (NCI-H226 lung): 45.1 µM
TGI (NCI-H226 lung): > 100 µM
GI50 (TK-10 renal): 52 µM
TGI (TK-10 renal): > 100 µM
GI50 (RXF 393 renal): 33.3 µM
TGI (RXF 393 renal): > 100 µM
GI50 (CAKI-1 renal): 36.5 µM
TGI (CAKI-1 renal): > 100 µM
GI50 (A549 NSCLC): 32.2 µM
TGI (A549 NSCLC): 96.9 µM
GI50 (UACC-257 melanoma): 40.3 µM
TGI (UACC-257 melanoma): > 100 µM
GI50 (OVCAR-4 ovarian): 40.6 µM
TGI (OVCAR-4 ovarian): > 100 µM
GI50 (SN12C renal): 34.1 µM
TGI (SN12C renal): > 100 µM
GI50 (HOP-62 NSCLC): 63.5 µM
TGI (HOP-62 NSCLC): > 100 µM
GI50 (SK-OV-3 ovarian): > 100 µM
TGI (SK-OV-3 ovarian): > 100 µM
GI50 (NCI-H522 lung): 89 µM
TGI (NCI-H522 lung): > 100 µM
GI50 (MDA-MB-435): 42.9 µM
TGI (MDA-MB-435): > 100 µM
GI50 (UACC-62 melanoma): 34.7 µM
TGI (UACC-62 melanoma): > 100 µM
GI50 (OVCAR-3 ovarian): 25.8 µM
TGI (OVCAR-3 ovarian): 72.7 µM
GI50 (CCRF-CEM leukemia): 86 µM
TGI (CCRF-CEM leukemia): > 100 µM
GI50 (COLO 205 colon): 45.7 µM
TGI (COLO 205 colon): > 100 µM
GI50 (SR leukemia): 27.9 µM
TGI (SR leukemia): > 100 µM
GI50 (HCT-15 colon): 46.1 µM
TGI (HCT-15 colon): > 100 µM
GI50 (KM12 colon): 42 µM
TGI (KM12 colon): > 100 µM
GI50 (OVCAR-5 ovarian): 52.4 µM
TGI (OVCAR-5 ovarian): > 100 µM
GI50 (UO-31 renal): 54.5 µM
TGI (UO-31 renal): > 100 µM
GI50 (SF-268 CNS): 33.8 µM
TGI (SF-268 CNS): > 100 µM
GI50 (SF-295 CNS): 36.4 µM
TGI (SF-295 CNS): > 100 µM
GI50 (RPMI-8226 leukemia): 28.8 µM
TGI (RPMI-8226 leukemia): > 100 µM
GI50 (PC-3 prostate): 47.4 µM
TGI (PC-3 prostate): > 100 µM
GI50 (IGROV1 ovarian): 44 µM
TGI (IGROV1 ovarian): > 100 µM
GI50 (NCI/ADR-RES ovarian): 28.5 µM
TGI (NCI/ADR-RES ovarian): 77.6 µM
GI50 (K-562 leukemia): 32.9 µM
TGI (K-562 leukemia): > 100 µM
GI50 (SNB-19 CNS): 78.8 µM
TGI (SNB-19 CNS): > 100 µM
GI50 (ACHN renal): 30 µM
TGI (ACHN renal): 92.7 µM
GI50 (SK-MEL-5 melanoma): 40.6 µM
TGI (SK-MEL-5 melanoma): > 100 µM
GI50 (LOX IMVI melanoma): 36.1 µM
TGI (LOX IMVI melanoma): > 100 µM
GI50 (M14 melanoma): 92.3 µM
TGI (M14 melanoma): > 100 µM
GI50 (A498 renal): 35 µM
TGI (A498 renal): 87.1 µM
GI50 (MOLT-4 leukemia): 30.3 µM
TGI (MOLT-4 leukemia): > 100 µM
GI50 (HL-60(TB) leukemia): 21.7 µM
TGI (HL-60(TB) leukemia): 53.4 µM
